Assay results: patent US20240299416A1, “TREATMENT OF NF-kB-MEDIATED DISEASE” (ReveraGen BioPharma, Inc., priority 2021, published 2024)

Assays:
[1] = Growth (height percentile) and BMI vs external comparators; format: in vivo, human
Protocol: As with the CINRG DNHS comparators, group-matching criteria were prespecified in the iSAP, and 2 independent statisticians carried out the participant matching. […] There was no corresponding 12-month assessment in vamorolone-treated participants. (Assessments of vamorolone-treated trial participants were 0, 3, 6, and 18 months).
Standing height and weight were assessed at each study visit. Height z-score, body mass index (BMI; kg/m^2), and BMI z-score were calculated centrally. AE reporting was done per protocol in the vamorolone trials.
The current study is the first to evaluate the longer-term tolerability, efficacy, and safety of vamorolone in DMD. […] Given the variable timing of dose escalations, it was prespecified that initial analyses of drug-related efficacy and safety would be limited to those participants who had 18 months of treatment with 2.0 mg/kg/day vamorolone or more (dose group C+dose group D; n=23). Outcomes for these participants were compared to a group-matched cohort from the CINRG DNHS over 18 months (corticosteroid-naïve, n=19; corticosteroid-treated, n=68). Participants were matched for age and treatment period (±1 month), matching criteria were prespecified in the statistical analysis plan. Two independent statisticians carried out the matching.
Participants in the corticosteroid-treated CINRG DNHS group were treated for at least 18 months, but the total duration, dose, and regimens varied.

boys with DMD = assay: VBP15-004 (VISION-DMD) Phase 2b efficacy at 24 weeks; format: in vivo, human
Text: (§1) The second period of 24 weeks, where all participants receive vamorolone treatment on either of the two dose levels, will continue to capture additional longer-term safety and tolerability data.

[2] = VBP15-004 adverse events at 24 weeks; parameters: species or system human; settings: in vivo
Text: In certain embodiments, the symptom may be an adverse event of special interest (AESI). In this context, AESIs are prespecified based on pre-defined MedDRA search criteria for eleven AESI categories for the corticosteroid class and then further stratified into AESI of at least moderate severity. The symptoms for treating DMD with corticosteroids include, but is not limited to, behavior adverse events, blood glucose related problems, gastrointestinal symptoms, increased arterial blood pressure, immune suppression/infections, skin/hair changes, cataracts/glaucoma, cushingoid features, weight gain, bone fractures, slow growth.
as §1

osteocalcin, P1NP, CTX = assay: VBP15-004 bone turnover biomarkers; format: in vivo, human
[3] = molecular target: T1, mineralocorticoid receptor (Homo sapiens, UniProt P08235); settings: cited from earlier work
T1 sequence (P08235 1-984): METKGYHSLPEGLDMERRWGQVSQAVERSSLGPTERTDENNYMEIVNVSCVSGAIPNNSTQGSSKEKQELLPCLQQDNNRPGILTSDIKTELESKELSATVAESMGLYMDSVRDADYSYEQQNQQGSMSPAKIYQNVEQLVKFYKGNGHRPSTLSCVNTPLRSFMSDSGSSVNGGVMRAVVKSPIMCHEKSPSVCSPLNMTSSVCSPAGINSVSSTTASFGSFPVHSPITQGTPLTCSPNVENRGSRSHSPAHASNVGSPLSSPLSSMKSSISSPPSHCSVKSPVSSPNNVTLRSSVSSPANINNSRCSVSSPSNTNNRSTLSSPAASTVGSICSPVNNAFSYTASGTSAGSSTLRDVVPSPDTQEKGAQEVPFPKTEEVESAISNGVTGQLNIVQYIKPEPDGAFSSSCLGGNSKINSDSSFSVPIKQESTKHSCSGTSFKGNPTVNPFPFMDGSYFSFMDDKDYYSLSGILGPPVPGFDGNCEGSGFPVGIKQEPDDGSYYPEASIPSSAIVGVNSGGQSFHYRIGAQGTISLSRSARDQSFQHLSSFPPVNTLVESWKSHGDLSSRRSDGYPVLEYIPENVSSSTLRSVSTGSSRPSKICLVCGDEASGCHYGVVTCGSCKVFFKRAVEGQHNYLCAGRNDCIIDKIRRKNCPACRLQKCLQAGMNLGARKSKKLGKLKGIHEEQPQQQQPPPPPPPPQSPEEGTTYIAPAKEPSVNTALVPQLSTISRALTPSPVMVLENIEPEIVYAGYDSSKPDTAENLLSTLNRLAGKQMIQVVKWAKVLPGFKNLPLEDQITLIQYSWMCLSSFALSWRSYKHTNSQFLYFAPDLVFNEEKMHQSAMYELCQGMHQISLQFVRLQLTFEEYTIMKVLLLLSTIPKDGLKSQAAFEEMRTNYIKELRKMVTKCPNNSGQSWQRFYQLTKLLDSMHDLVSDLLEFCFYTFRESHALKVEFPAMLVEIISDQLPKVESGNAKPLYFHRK

[4] = vamorolone 18 months vs prednisone trial 12 months
[5] = vamorolone vs corticosteroid-naïve DNHS, 18 months
[6] = vamorolone vs corticosteroid-treated DNHS, 18 months

## C[C@@H]1C[C@H]2[C@@H]3CCC4=CC(=O)C=C[C@]4(C)C3=CC[C@]2(C)[C@@]1(O)C(=O)CO [Vamorolone, 17α,21-dihydroxy-16α-methylpregna-1,4,9(11)-triene-3,20-dione]
[1]; 18 months of treatment
  Mean BMI z-score, 18-month value (SD): 1.46 (0.62)
  Mean BMI z-score, change from baseline (SD): 0.411 (0.615)
  Mean height percentile for age, 18-month value (SD): 35.24 (29.82)
[1]; 18 months of treatment, listed as vamorolone
  Mean BMI z-score, change from baseline (SD): 0.41
[1]; DMD children, 18 months treatment
  LS Mean change in height percentiles for age: +6.9
[1]; baseline of 18-month period
  Mean BMI z-score, baseline value (SD): 1.03 (0.56)
  Mean height percentile for age, baseline value (SD): 29.19 (24.66)
[1]; baseline of 18-month period, listed as vamorolone
  Mean BMI z-score, baseline value (SD): 1.03
[1]; original dose group B (0.75 mg/kg/day, escalated)
  BMI change from baseline to 18 months: 0.5 kg/m^2
[1]; original dose group C (2.0 mg/kg/day)
  BMI change from baseline to 18 months: 1.11 kg/m^2
[1]; original dose group D (6.0 mg/kg/day)
  BMI change from baseline to 18 months: 2.55 kg/m^2
[1]; [4]
  Mean BMI z-score, LS mean difference (SE): 0.066 (0.193)
  Mean height percentile for age, LS mean difference (SE): 10.37 (3.86)
[1]; vamorolone 18 months vs prednisone trial 12 months, listed as vamorolone
  Mean height percentile for age, LS mean difference (SE): 10.37
[1]; [5]
  Mean BMI z-score, LS mean difference (SE): 0.899 (0.204)
  Mean height percentile for age, LS mean difference (SE): 6.72 (3.48)
[1]; [6]
  Mean BMI z-score, LS mean difference (SE): 0.282 (0.146)
  Mean height percentile for age, LS mean difference (SE): 15.86 (3.70)
[1]; vamorolone vs corticosteroid-treated DNHS, 18 months, listed as vamorolone
  Mean height percentile for age, LS mean difference (SE): 15.86
Boys with DMD; 2 mg/kg/day, 24 weeks, p=0.009
  6MWT versus placebo: superiority
Boys with DMD; 2 mg/kg/day, 24 weeks, p=0.02
  TTSTAND velocity versus placebo: superiority
Boys with DMD; 6 mg/kg/day group, baseline
  TTSTAND: 6.0 s
Boys with DMD; 6 mg/kg/day vs prednisone 0.75 mg/kg/day, 24 weeks
  efficacy endpoints versus prednisone: no statistically significant differences
Boys with DMD; 6 mg/kg/day, 24 weeks, p=0.002
  TTRW versus placebo: superiority
Boys with DMD; 6 mg/kg/day, 24 weeks, p=0.003
  6MWT versus placebo: superiority
[2]
  clinically relevant psychiatric events, subjects: no vamorolone-treated subjects
[2]; male, human, 24 weeks
  Aggression, any severity, F: 1
  Agitation, any severity, F: 1
  Anxiety, any severity, F: 1
  Any Behavior AESI, moderate/severe, F: 1
  Irritability, any severity, F: 3
  Mood altered, any severity, F: 1
  Poor quality sleep, any severity, F: 1
  Psychomotor hyperactivity, any severity, F: 2
  Serious adverse events, F: 1
  Skin laceration, any severity, F: 1
  Skin laceration, moderate/severe, F: 1
  Sleep disorder, any severity, F: 1
  moderate/severe behavior problems, subjects: 1.7%
osteocalcin, P1NP, CTX; Vamorolone 2.0 mg
  Osteocalcin, mean (SEM) change at Week 24: 8.3 (3.1) ng/ml
  Procollagen 1 N-Terminal Propeptide (P1NP), mean (SEM) change at Week 24: 48 (27) ng/mL
  Type I Collagen C-Telopeptides (CTX), mean (SEM) change at Week 24: 177 (52) pg/mL
osteocalcin, P1NP, CTX; Vamorolone 2.0 mg, Week 24
  Osteocalcin, difference vs. prednisone: 23.5 ng/mL
  Procollagen 1 N-Terminal Propeptide (P1NP), difference vs. prednisone: 182 ng/mL
  Type I Collagen C-Telopeptides (CTX), difference vs. prednisone: 477 pg/mL
osteocalcin, P1NP, CTX; Vamorolone 6.0 mg
  Osteocalcin, mean (SEM) change at Week 24: 1.7 (2.8) ng/ml
  Procollagen 1 N-Terminal Propeptide (P1NP), mean (SEM) change at Week 24: −11 (22) ng/mL
  Type I Collagen C-Telopeptides (CTX), mean (SEM) change at Week 24: 90 (44) pg/mL
osteocalcin, P1NP, CTX; Vamorolone 6.0 mg, Week 24
  Osteocalcin, difference vs. prednisone: 16.9 ng/mL
  Procollagen 1 N-Terminal Propeptide (P1NP), difference vs. prednisone: 124 ng/mL
  Type I Collagen C-Telopeptides (CTX), difference vs. prednisone: 390 pg/mL
osteocalcin, P1NP, CTX; Week 24, vamorolone 2.0 and 6.0 mg/kg
  effect on bone biomarkers (osteocalcin, PINP, CTX): did not decrease bone biomarkers
[3]
  activity at the mineralocorticoid receptor: potent antagonist
